Measurements taken from US20260013505A1, “Herbicidal Compositions Comprising Diclosulam” (BASF SE, priority 2024, published 2026).

Legend:
Assay type in all cases: in vivo
Ipomoea triloba = assay: Example 1 post-emergence field trial, IPOTR; conditions: 14 DAT, growth stage 35
Protocol: (§1) In the examples below, using the method of S. R. Colby (1967) “Calculating synergistic and antagonistic responses of herbicide combinations”, Weeds 15, p. 22ff., the value E, which is expected if the activity of the individual active compounds is only additive, was calculated:
(§2) [formula] • where • X=percent activity using active herbicide A at an application rate a; • Y=percent activity using active herbicide B (e.g. diclosulam) at an application rate b; • E=expected activity (in %) by A+B at application rates a+b.
(§3) If the value found experimentally is higher than the value E calculated according to Colby, a synergistic effect is present.
(§4) On field test sites, natural weed infestation or seeded weeds were treated post-emergence of the weeds.
(§5) In the field trials, the weeds were treated as indicated below.
(§6) In the following experiments, the herbicidal activity for the individual herbicidal compositions (solo and mixture applications) was assessed at the indicated days after treatment (DAT). The assessments for the damage on undesired weeds caused by the composition was carried out using a scale from 0 to 100%, compared to the untreated control plants. Here, 0 means no damage and 100 means complete destruction of the plants. […]

Amaranthus viridis = assay: Example 2 post-emergence field trial, AMAVI; conditions: 21 DAT, growth stage 16-18
Protocol: as §1, §2, §3, §4, §5, §6

Brachiaria plantaginea = assay: Example 1 post-emergence field trial, BRAPL; conditions: B solo 30 g ai/ha, 14 DAT, growth stage 21-25
Protocol: as §1, §2, §3, §4, §5, §6

Portulaca oleracea = assay: Example 2 post-emergence field trial, POROL; conditions: B solo 30 g ai/ha, 21 DAT, growth stage 14-16
Protocol: as §1, §2, §3, §4, §5, §6

Sorghum vulgare = assay: Example 2 post-emergence field trial, SORVU; conditions: B solo 30 g ai/ha, 14 DAT, growth stage 14-15
Protocol: as §1, §2, §3, §4, §5, §6

Eleusine indica [1] = assay: Example 1 post-emergence field trial, ELEIN; conditions: B solo 30 g ai/ha, 14 DAT, growth stage 18-31
Protocol: as §1, §2, §3, §4, §5, §6

Digitaria horizontalis = assay: Example 1 post-emergence field trial, DIGHO; conditions: B solo 30 g ai/ha, 14 DAT, growth stage 18-31
Protocol: as §1, §2, §3, §4, §5, §6

Euphorbia heterophylla = assay: Example 1 post-emergence field trial, EPHHL; conditions: B solo 30 g ai/ha, 14 DAT, growth stage 35
Protocol: as §1, §2, §3, §4, §5, §6

Eleusine indica [2] = assay: Example 2 post-emergence field trial, ELEIN; conditions: B solo 30 g ai/ha, 21 DAT, growth stage 21-25
Protocol: as §1, §2, §3, §4, §5, §6

Cenchrus echinatus = assay: Example 1 post-emergence field trial, CCHEC; conditions: B solo 30 g ai/ha, 14 DAT, growth stage 18-31
Protocol: as §1, §2, §3, §4, §5, §6

Amaranthus hybridus = assay: Example 1 post-emergence field trial, AMACH; conditions: B solo 30 g ai/ha, 14 DAT, growth stage 35
Protocol: as §1, §2, §3, §4, §5, §6

| Compound | % herbicidal activity (Ipomoea triloba; A-1 solo 25 g ai/ha) [%] | % herbicidal activity (Amaranthus viridis; A-1 solo 25 g ai/ha) [%] | % herbicidal activity (Brachiaria plantaginea) [%] | % herbicidal activity (Portulaca oleracea) [%] | % herbicidal activity (Sorghum vulgare) [%] | % herbicidal activity (Eleusine indica [1]) [%] | % herbicidal activity (Digitaria horizontalis) [%] | % herbicidal activity (Euphorbia heterophylla) [%] | % herbicidal activity (Ipomoea triloba; B solo 30 g ai/ha) [%] | % herbicidal activity (Eleusine indica [2]) [%] | % herbicidal activity (Amaranthus viridis; B solo 30 g ai/ha) [%] | % herbicidal activity (Cenchrus echinatus) [%] | % herbicidal activity (Amaranthus hybridus) [%] |
| --- | --- | --- | --- | --- | --- | --- | --- | --- | --- | --- | --- | --- | --- |
| CCOC(=O)COc1ccccc1Oc1nc(-n2c(=O)cc(C(F)(F)F)n(C)c2=O)c(F)cc1Cl [A-1, ethyl 2-[2-[[3-chloro-5-fluoro-6-[3-methyl-2,6-dioxo-4-(trifluoromethyl)pyrimidin-1-yl]-2-pyridyl]oxy]phenoxy]acetate] | 61 | 69 | – | – | – | – | – | – | – | – | – | – | – |
| CCOc1nc(F)cc2nc(S(=O)(=O)Nc3c(Cl)cccc3Cl)nn12 [B, diclosulam] | – | – | 3 | 58 | 32 | 0 | 0 | 16 | 17 | 0 | 65 | 20 | 22 |
